From patent publication US10653688B2, “6-(6-membered heteroaryl and aryl)isoquinolin-3-yl carboxamides and preparation and use thereof” (Samumed, LLC, priority 2017, dated 2020)
Read-outs that look alike come from different tables or passages of the source.

Tests used:
[1] = tested on: Wnt activity (SW480 colon carcinoma cells stably expressing the Sp5-Luc reporter gene); assay: Wnt activity screening assay (Sp5-Luc reporter gene assay); assay type: cell-based, human; details: Homo sapiens; for EC50: 36 to 48 hours; for inhibition at 10 µM: read-out: percent inhibition at 10 μM (given for EC50 >10 μM), 10 μM
Excerpt: The screening assay for Wnt activity is described as follows. Reporter cell lines can be generated by stably transducing cancer cell lines (e.g., colon cancer) or primary cells (e.g., IEC-6 intestinal cells) with a lentiviral construct that includes a Wnt-responsive promoter driving expression of the firefly luciferase gene.
SW480 colon carcinoma cells were transduced with a lentiviral vector expressing luciferase with a human Sp5 promoter consisting of a sequence of eight TCF/LEF binding sites. SW480 cells stably expressing the Sp5-Luc reporter gene and a hygromycin resistance gene were selected by treatment with 150 μg/mL of hygromycin for 7 days. These stably transduced SW480 cells were expanded in cell culture and used for all further screening activities. […] For Sp5-Luc reporter gene assays, the cells were plated at 4,000 cells/well in 384-well plates with a DMEM medium containing 1% fetal bovine serum, and 1% Penicillin-Streptomycin and incubated for 36 to 48 hours at 37° C. and 5% CO2. Following incubation, 15 μl of BriteLite Plus luminescence reagent (Perkin Elmer) was added to each well of the 384-well assay plates. The plates were placed on an orbital shaker for 2 min and then luminescence was quantified using the Envision (Perkin Elmer) plate reader. Readings were normalized to DMSO only treated cells, and normalized activities were utilized for EC50 calculations using the dose-response log (inhibitor) vs. response-variable slope (four parameters) nonlinear regression feature available in GraphPad Prism 5.0 (or Dotmatics).

[2] = tested on: LL29 cells (primary human fibroblasts derived from IPF patients), α-smooth muscle actin; assay: Inhibition of fibrotic process: TGF-β1-treated primary human fibroblasts, αSMA staining; assay type: cell-based; details: Homo sapiens, Fibroblast; for EC50: 96 h, TGF-β1 20 ng/mL, 4 days, % cells positive for αSMA; for inhibition at 10 µM: read-out: percent inhibition at 10 μM (given for EC50 >10 μM), TGF-β1, αSMA, 10 μM;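 for all read-outs here: controls were TGF-β1-stimulated wells with DMSO vehicle as the positive reference and cells given DMSO alone as the negative reference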
[3] = target: recombinant GSK3β kinase (Homo sapiens (Human), UniProt P49841); assay: GSK3β kinase assay (Ser/Thr 09 peptide Z-lyte, FRET); assay type: biochemical;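 note: FRET read-out as coumarin over fluorescein emission ratio, compounds incubated one hour at room temperature, IC50 from dose-response curve fit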
Chain of recombinant GSK3β kinase (P49841 whole entry): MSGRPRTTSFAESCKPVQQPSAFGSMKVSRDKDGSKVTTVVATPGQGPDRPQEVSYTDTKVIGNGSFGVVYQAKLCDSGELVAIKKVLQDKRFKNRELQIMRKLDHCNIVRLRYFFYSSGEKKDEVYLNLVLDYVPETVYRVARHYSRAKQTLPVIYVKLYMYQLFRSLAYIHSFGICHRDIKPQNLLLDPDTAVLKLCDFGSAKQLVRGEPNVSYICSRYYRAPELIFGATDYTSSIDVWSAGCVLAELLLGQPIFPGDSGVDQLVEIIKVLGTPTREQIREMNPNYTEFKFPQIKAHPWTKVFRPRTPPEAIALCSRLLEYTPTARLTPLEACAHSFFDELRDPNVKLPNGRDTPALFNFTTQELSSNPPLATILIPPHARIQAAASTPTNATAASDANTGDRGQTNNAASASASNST

[4] = tested on: SW480 colon carcinoma cells; assay: Cell viability assay (CellTiter-Glo); assay type: cell-based, human; details: Homo sapiens; for EC50: 96 h, four days, CellTiter-Glo; for inhibition at 10 µM: read-out: percent inhibition at 10 μM (given for EC50 >10 μM), 10 μM
Method: SW480 colon carcinoma cells were transduced with a lentiviral vector expressing luciferase with a human Sp5 promoter consisting of a sequence of eight TCF/LEF binding sites. SW480 cells stably expressing the Sp5-Luc reporter gene and a hygromycin resistance gene were selected by treatment with 150 μg/mL of hygromycin for 7 days. These stably transduced SW480 cells were expanded in cell culture and used for all further screening activities.
For the Cell Viability Assays, the cells were plated at 2,000 cells/well in 384-well plates with a DMEM medium containing 1% fetal bovine serum, and 1% Penicillin-Streptomycin and incubated for […] at 37° C. and 5% CO2. Eight replicates of DMSO-treated cells served as controls and cells treated with compound were performed in duplicate.
After incubation, 10 μL of CellTiter-Glo (Promega) was added to each well allowed to incubate for approximately 12 minutes. This reagent “results in cell lysis and generation of a luminescent signal proportional to the amount of ATP present. The amount of ATP is directly proportional to the number of cells present in culture, in agreement with previous reports. The CellTiter-Glo Assay generates a “glow-type” luminescent signal, produced by the luciferase reaction (Promega.com)”.

[5] = tested on: IL-6 in human peripheral blood mononuclear cells (huPBMCs); assay: IL-6 inhibition in LPS-stimulated human peripheral blood mononuclear cells (HTRF); assay type: cell-based; details: Homo sapiens, PBMC; for EC50: LPS 50 ng/mL, 22 hours, IL-6 HTRF; for inhibition at 10 µM: read-out: percent inhibition at 10 μM (given for EC50 >10 μM), LPS, IL-6, 10 μM
Method: Human Peripheral Blood Mononuclear Cells:
Fresh Normal PB MNC (Catalog # PB001, AllCells, Alameda, Calif.) were shipped overnight at 4° C. and resuspended in Roswell Park Memorial Institute (RPMI) 1640 Medium, with GlutaMAX Supplement (Catalog #61870127, ThermoFisher Scientific, Waltham, Mass.) supplemented with 1% Penicillin-Streptomycin (Catalog #15140163, ThermoFisher Scientific, Waltham, Mass.) and 1% fetal bovine serum (FBS) (Catalog #16140089, ThermoFisher Scientific, Waltham, Mass.) assay media.
Fresh normal human peripheral blood mononuclear cells (huPBMCs) were resuspended in 1% FBS-RPMI assay media with 1% Penicillin-Streptomycin 1% to a cell concentration of 1×10e6 cells/mL. […] 50 ng/mL of Lipopolysaccharides from Escherichia coli 0111:B4 (Catalog # L5293-2ML, Sigma-Aldrich, St. Louis, Mo.) was added after 2 hours and cells were incubated for another 22 hours at 37° C.-5% CO2. After 22 hour incubation, a mixture of anti-IL6 XL665 and anti-IL-6 Cryptate diluted in reconstitution buffer (Catalog #62IL6PEC, Cisbio Inc., Bedford, Mass.) was added to each well. Following incubation for 3 hours at room temperature, Homogeneous Time-Resolved Fluorescence (HTRF) was measured using the Envision (Perkin Elmer, Shelton, Conn.) at 665 nm and […]. The ratio of fluorescence at 665 nm to 620 nm was used as a readout for IL-6 quantification. All samples were processed in duplicate. Readings were normalized to DMSO treated cells and normalized activities were utilized for EC50 calculations. EC50 was determined using software generated by Dotmatics Limited (Windhill Bishops Stortford Herts, UK) using the Levenberg-Marquardt 4 parameter fitting procedure with finite different gradients.

[6] = target: recombinant DYRK1A kinase (Homo sapiens (Human), UniProt Q13627); assay: DYRK1A kinase assay (Ser/Thr 18 peptide Z-lyte, FRET)
[7] = GSK3β kinase, head says EC50, method says IC50, ATP 46 μM
[8] = DYRK1A kinase, head says EC50, method says IC50, ATP 30 μM

## CN1CCN(c2cc(C(=O)Nc3cc4cc(-c5ccc(N)nc5)ccc4cn3)ccn2)CC1 [Compound 39, N-(6-(6-Aminopyridin-3-yl)isoquinolin-3-yl)-2-(4-methylpiperazin-1-yl) isonicotinamide]
[1]
  EC50: 710 nM
[2]
  EC50: 2480 nM
[3]
  EC50: > 10000 nM
[4]
  EC50: 2720 nM
[5]
  EC50: 3390 nM
[6]
  EC50: 12 nM

## CNc1ccc(-c2ccc3cnc(NC(=O)c4ccnc(N5CCN(C)CC5)c4)cc3c2)cn1 [Compound 40, N-(6-(6-(Methylamino)pyridin-3-yl)isoquinolin-3-yl)-2-(4-methylpiperazin-1-yl)isonicotinamide]
[1]
  EC50: 4120 nM
[2]
  EC50: 1470 nM
[3]
  EC50: > 10000 nM
[4]
  EC50: 3370 nM
[5]
  EC50: > 10000 nM
  inhibition at 10 µM: 3.7%
[6]
  EC50: 64 nM

## CC(C)Nc1cncc(-c2ccc3cnc(NC(=O)c4cccc(C5CCNCC5)c4)cc3c2)c1 [Compound 41, N-(6-(5-(Isopropylamino)pyridin-3-yl)isoquinolin-3-yl)-3-(piperidin-4-yl) benzamide]
[1]
  EC50: 573 nM
[2]
  EC50: 571 nM
[3]; [7]
  EC50: > 10000 nM
[4]
  EC50: 636 nM
[5]
  EC50: 1110 nM
[6]; [8]
  EC50: 4 nM

## CC(C)Nc1cncc(-c2ccc3cnc(NC(=O)c4cccc(C5CCN(C)CC5)c4)cc3c2)c1 [Compound 42, N-(6-(5-(Isopropylamino)pyridin-3-yl)isoquinolin-3-yl)-3-(1-methylpiperidin-4-yl)benzamide]
[1]
  EC50: 403 nM
[2]
  EC50: 631 nM
[3]; [7]
  EC50: > 10000 nM
[4]
  EC50: 491 nM
[5]
  EC50: 1100 nM
[6]; [8]
  EC50: 3 nM

## CC(C)Nc1cncc(-c2ccc3cnc(NC(=O)c4ccnc(N5CCN(C)CC5)c4)cc3c2)c1 [Compound 43, N-(6-(5-(Isopropylamino)pyridin-3-yl)isoquinolin-3-yl)-2-(4-methylpiperazin-1-yl)isonicotinamide]
[1]
  EC50: 275 nM
[2]
  EC50: 217 nM
[3]; [7]
  EC50: > 10000 nM
[4]
  EC50: 467 nM
[5]
  EC50: 2060 nM
[6]; [8]
  EC50: 2 nM

## O=C(Nc1cc2cc(-c3cncc(NC4CCNCC4)c3)ccc2cn1)c1ccc(F)cc1 [Compound 45, 4-fluoro-N-(6-(5-(piperidin-4-ylamino)pyridin-3-yl)isoquinolin-3-yl) benzamide]
[1]
  EC50: 698 nM
[2]
  EC50: 622 nM
[3]
  EC50: > 10000 nM
[4]
  EC50: 865 nM
[5]
  EC50: 1130 nM
[6]
  EC50: 9 nM

## CN1CCC(Nc2cncc(-c3ccc4cnc(NC(=O)c5ccc(F)cc5)cc4c3)c2)CC1 [Compound 46, 4-Fluoro-N-(6-(5-((1-methylpiperidin-4-yl)amino)pyridin-3-yl)isoquinolin-3-yl)benzamide]
[1]
  EC50: 4410 nM
[2]
  EC50: 682 nM
[3]; [7]
  EC50: 7090 nM
[4]
  EC50: 4250 nM
[5]
  EC50: 1380 nM
[6]; [8]
  EC50: 3 nM

## CN1CCN(c2cc(C(=O)Nc3cc4cc(-c5cncc(N(C)C)c5)ccc4cn3)ccn2)CC1 [Compound 48, N-(6-(5-(Dimethylamino)pyridin-3-yl)isoquinolin-3-yl)-2-(4-methylpiperazin-1-yl)isonicotinamide]
[1]
  EC50: 2320 nM
[2]
  EC50: 4880 nM
[3]
  EC50: > 10000 nM
[4]
  EC50: 6560 nM
[5]
  EC50: 9680 nM
[6]
  EC50: 40 nM

## CN1CCN(c2cc(C(=O)Nc3cc4cc(-c5ccc(N(C)C)nc5)ccc4cn3)ccn2)CC1 [Compound 49, N-(6-(6-(Dimethylamino)pyridin-3-yl)isoquinolin-3-yl)-2-(4-methylpiperazin-1-yl)isonicotinamide]
[1]
  EC50: > 10000 nM
[2]
  EC50: > 10000 nM
  inhibition at 10 µM: 33.5%
[3]; [7]
  EC50: > 10000 nM
[4]
  EC50: > 10000 nM
  inhibition at 10 µM: 37.1%
[5]
  EC50: > 10000 nM
  inhibition at 10 µM: 0%
[6]; [8]
  EC50: 904 nM

## O=C(Nc1cc2cc(-c3cncc(CN4CCCC4)c3)ccc2cn1)c1ccc(F)cc1 [Compound 52, 4-Fluoro-N-(6-(5-(pyrrolidin-1-ylmethyl)pyridin-3-yl)isoquinolin-3-yl) benzamide]
[1]
  EC50: > 10000 nM
  inhibition at 10 µM: 17.7%
[2]
  EC50: > 10000 nM
  inhibition at 10 µM: 37.1%
[3]; [7]
  EC50: > 10000 nM
[4]
  EC50: 6920 nM
[5]
  EC50: > 10000 nM
  inhibition at 10 µM: 17.6%
[6]; [8]
  EC50: 12 nM

## O=C(Nc1cc2cc(-c3cncc(CN4CCC(O)CC4)c3)ccc2cn1)c1ccc(F)cc1 [Compound 54, 4-Fluoro-N-(6-(5-((4-hydroxypiperidin-1-yl)methyl)pyridin-3-yl)isoquinolin-3-yl)benzamide]
[1]
  EC50: 382 nM
[2]
  EC50: > 10000 nM
  inhibition at 10 µM: 11.2%
[3]
  EC50: > 10000 nM
[4]
  EC50: 647 nM
[5]
  EC50: > 10000 nM
  inhibition at 10 µM: 17.9%
[6]
  EC50: 3 nM

## CNC(=O)c1cncc(-c2ccc3cnc(NC(=O)c4ccnc(N5CCN(C)CC5)c4)cc3c2)c1 [Compound 59, N-methyl-5-(3-(2-(4-methylpiperazin-1-yl)isonicotinamido)isoquinolin-6-yl)nicotinamide]
[1]
  EC50: 866 nM
[2]
  EC50: 705 nM
[3]; [7]
  EC50: > 10000 nM
[4]
  EC50: 2320 nM
[5]
  EC50: > 10000 nM
  inhibition at 10 µM: 4.7%
[6]; [8]
  EC50: 6 nM

## Cc1ncc(-c2ccc3cnc(NC(=O)c4ccnc(N5CCN(C)CC5)c4)cc3c2)cn1 [Compound 64, 2-(4-Methylpiperazin-1-yl)-N-(6-(2-methylpyrimidin-5-yl)isoquinolin-3-yl)isonicotinamide]
[1]
  EC50: > 10000 nM
  inhibition at 10 µM: 28.7%
[2]
  EC50: 2000 nM
[3]; [7]
  EC50: > 10000 nM
[4]
  EC50: 8020 nM
[5]
  EC50: > 10000 nM
  inhibition at 10 µM: 5.7%
[6]; [8]
  EC50: 158 nM

## O=C(CN1CCCC1)Nc1cc2cc(-c3ccnnc3)ccc2cn1 [Compound 68, N-(6-(Pyridazin-4-yl)isoquinolin-3-yl)-2-(pyrrolidin-1-yl)acetamide]
[1]
  EC50: 4210 nM
[2]
  EC50: 3380 nM
[3]; [7]
  EC50: 2590 nM
[4]
  EC50: 7910 nM
[5]
  EC50: 8760 nM
[6]; [8]
  EC50: 328 nM

## CN1CCC(F)(C(=O)Nc2cc3cc(-c4cnccn4)ccc3cn2)CC1 [Compound 76, 4-Fluoro-1-methyl-N-(6-(pyrazin-2-yl)isoquinolin-3-yl)piperidine-4-carboxamide]
[1]
  EC50: > 10000 nM
  inhibition at 10 µM: 15.7%
[2]
  EC50: > 10000 nM
  inhibition at 10 µM: 13.1%
[3]; [7]
  EC50: > 10000 nM
[4]
  EC50: > 10000 nM
  inhibition at 10 µM: 17.5%
[5]
  EC50: > 10000 nM
  inhibition at 10 µM: 1.6%
[6]; [8]
  EC50: 258 nM
